What follows are compounds tested on T47D (PIK3CA H1047R) cells (assay: pS473 AKT assay with 2.5% FBS, T47D cells). Details: Homo sapiens, pSer473 AKT, DMEM with 2.5% FBS, 2 h treatment, read-out: T47D_IC50.
Format: cell-based
Outline: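 In-cell chemiluminescent ELISA of AKT Ser473 phosphorylation, using anti-pSer473 primary and HRP secondary antibodies on fixed cells. T47D (PIK3CA H1047R) cells had 2 h of compound treatment in DMEM containing 2.5% FBS; IC50 derived from dose-response.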

Row | Compound | IC50 [nM]
1 | Cc1cc(C(C)Nc2ccc(Cl)nc2-c2cnn(C)c2)c2c(c1)c(=O)n(C)c1c2cnn1CC1CCN(C(=O)N(C)C)CC1 (centres unmarked) [Compound 108, 4-((9-(1-((6-chloro-2-(1-methyl-1H-pyrazol-4-yl)pyridin-3-yl)amino)ethyl)-4,7-dimethyl-5-oxo-4,5-dihydro-3H-pyrazolo[3,4-c]isoquinolin-3-yl)methyl)-N,N-dimethylpiperidine-1-carboxamide] | < 1000
2 | CCNC(=O)N1CCC(Cn2ncc3c4c(C(C)Nc5ccc(Cl)nc5-c5ccncc5F)cc(C)cc4c(=O)n(C)c32)CC1 (centres unmarked) [Compound 109, 4-((9-(1-((6-Chloro-3′-fluoro-[2,4′-bipyridin]-3-yl)amino)ethyl)-4,7-dimethyl-5-oxo-4,5-dihydro-3H-pyrazolo[3,4-c]isoquinolin-3-yl)methyl)-N-ethylpiperidine-1-carboxamide] | < 1000
3 | Cc1cc(C(C)Nc2ccc(Cl)nc2-c2ccncc2F)c2c(c1)c(=O)n(C)c1c2cnn1CC1CCN(CC(F)F)C1 (centres unmarked) [Compound 110, 9-(1-((6-Chloro-3′-fluoro-[2,4′-bipyridin]-3-yl)amino)ethyl)-3-((1-(2,2-difluoroethyl)pyrrolidin-3-yl)methyl)-4,7-dimethyl-3,4-dihydro-5H-pyrazolo[3,4-c]isoquinolin-5-one] | < 1000
4 | Cc1cc(C(C)Nc2ccc(Cl)nc2-c2ncn(C)n2)c2c(c1)c(=O)n(C)c1c(C(C)O)ncn21 (centres unmarked) [Compound 111, 9-(1-((6-Chloro-2-(1-methyl-1H-1,2,4-triazol-3-yl)pyridin-3-yl)amino)ethyl)-3-(1-hydroxyethyl)-4,7-dimethylimidazo[1,5-a]quinazolin-5(4H)-one] | < 1000
5 | Cc1cc(C(C)Nc2ccc(Cl)nc2-c2ncn(C)n2)c2c(c1)c(=O)n(C)c1c(-c3cccnc3)ncn21 (centres unmarked) [Compound 112, 9-(1-((6-Chloro-2-(1-methyl-1H-1,2,4-triazol-3-yl)pyridin-3-yl)amino)ethyl)-4,7-dimethyl-3-(pyridin-3-yl) imidazo[1,5-a]quinazolin-5(4H)-one] | < 1000
6 | Cc1cc(C(C)Nc2ccc(Cl)nc2-c2ncn(C)n2)c2c(c1)c(=O)n(C)c1c(-c3cccnc3C)ncn21 (centres unmarked) [Compound 113, 9-(1-((6-chloro-2-(1-methyl-1H-1,2,4-triazol-3-yl)pyridin-3-yl)amino)ethyl)-4,7-dimethyl-3-(2-methylpyridin-3-yl)imidazo[1,5-a]quinazolin-5(4H)-one] | < 1000
7 | Cc1cc(C(C)Nc2ccc(Cl)nc2-c2ncn(C)n2)c2c(c1)c(=O)n(C)c1c(-c3cncnc3)ncn21 (centres unmarked) [Compound 114, 9-(1-((6-chloro-2-(1-methyl-1H-1,2,4-triazol-3-yl)pyridin-3-yl)amino)ethyl)-4,7-dimethyl-3-(pyrimidin-5-yl)imidazo[1,5-a]quinazolin-5(4H)-one] | < 1000
8 | Cc1cc(C(C)Nc2ccc(Cl)nc2-c2ncn(C)n2)c2c(c1)c(=O)n(C)c1c(-c3ccnc(C)c3)ncn21 (centres unmarked) [Compound 115, 9-(1-((6-chloro-2-(1-methyl-1H-1,2,4-triazol-3-yl)pyridin-3-yl)amino)ethyl)-4,7-dimethyl-3-(2-methylpyridin-4-yl)imidazo[1,5-a]quinazolin-5(4H)-one] | < 1000
9 | Cc1cc(C(C)Nc2ccc(Cl)nc2-c2cnn(C)c2)c2c(c1)c(=O)n(C)c1c(-c3cccnc3C)ncn21 (centres unmarked) [Compound 116, 9-(1-((6-Chloro-2-(1-methyl-1H-pyrazol-4-yl)pyridin-3-yl)amino)ethyl)-4,7-dimethyl-3-(2-methylpyridin-3-yl) imidazo[1,5-a]quinazolin-5(4H)-one] | < 1000
10 | Cc1cc(C(C)Nc2ccc(Cl)nc2-c2cnn(C)c2)c2c(c1)c(=O)n(C)c1c(-c3cncnc3)ncn21 (centres unmarked) [Compound 117, 9-(1-((6-chloro-2-(1-methyl-1H-pyrazol-4-yl)pyridin-3-yl)amino)ethyl)-4,7-dimethyl-3-(pyrimidin-5-yl)imidazo[1,5-a]quinazolin-5(4H)-one] | < 1000
11 | CNC(=O)c1cc(-c2ncn3c4c(C(C)Nc5ccc(Cl)nc5-c5cnn(C)c5)cc(C)cc4c(=O)n(C)c23)ccn1 (centres unmarked) [Compound 118, 4-(9-(1-((6-chloro-2-(1-methyl-1H-pyrazol-4-yl)pyridin-3-yl)amino)ethyl)-4,7-dimethyl-5-oxo-4,5-dihydroimidazo[1,5-a]quinazolin-3-yl)-N-methylpicolinamide] | < 1000
12 | Cc1cc(C(C)Nc2ccc(Cl)nc2-c2ncn(C)n2)c2c(c1)c(=O)n(C)c1c(C(=O)N(C)C)ncn21 (centres unmarked) [Compound 119, 9-(1-((6-Chloro-2-(1-methyl-1H-1,2,4-triazol-3-yl)pyridin-3-yl)amino)ethyl)-N,N,4,7-tetramethyl-5-oxo-4,5-dihydroimidazo[1,5-a]quinazoline-3-carboxamide] | < 1000
13 | Cc1cc(C(C)Nc2ccc(Cl)nc2-c2cnn(C)c2)c2c(c1)c(=O)n(C)c1c(C(=O)N(C)C)ncn21 (centres unmarked) [Compound 120, 9-(1-((6-Chloro-2-(1-methyl-1H-pyrazol-4-yl)pyridin-3-yl)amino)ethyl)-N,N,4,7-tetramethyl-5-oxo-4,5-dihydroimidazo[1,5-a]quinazoline-3-carboxamide] | < 1000
14 | Cc1cc(C(C)Nc2ccc(Cl)nc2-c2cnn(C)c2)c2c(c1)c(=O)n(C)c1c(C(=O)N3CCC3)ncn21 (centres unmarked) [Compound 121, 3-(azetidine-1-carbonyl)-9-(1-((6-chloro-2-(1-methyl-1H-pyrazol-4-yl)pyridin-3-yl)amino)ethyl)-4,7-dimethylimidazo[1,5-a]quinazolin-5(4H)-one] | < 1000
15 | Cc1cc(C(C)Nc2ccc(Cl)nc2-c2cnn(C)c2)c2c(c1)c(=O)n(C)c1c(C(=O)N3CC(O)C3)ncn21 (centres unmarked) [Compound 122, 9-(1-((6-chloro-2-(1-methyl-1H-pyrazol-4-yl)pyridin-3-yl)amino)ethyl)-3-(3-hydroxyazetidine-1-carbonyl)-4,7-dimethylimidazo[1,5-a]quinazolin-5(4H)-one] | < 1000
16 | Cc1cc(C(C)Nc2ccc(Cl)nc2-c2ncn(C)n2)c2c(c1)c(=O)n(CC(F)F)c1c(C(=O)N(C)C)ncn21 (centres unmarked) [Compound 123, 9-(1-((6-chloro-2-(1-methyl-1H-1,2,4-triazol-3-yl)pyridin-3-yl)amino)ethyl)-4-(2,2-difluoroethyl)-N,N,7-trimethyl-5-oxo-4,5-dihydroimidazo[1,5-a]quinazoline-3-carboxamide] | < 1000
17 | Cc1cc(C(C)Nc2ccc(Cl)nc2-c2c[nH]nc2C)c2c(c1)c(=O)n(C)c1c(C(=O)N(C)C)ncn21 (centres unmarked) [Compound 124, 9-(1-((6-Chloro-2-(3-methyl-1H-pyrazol-4-yl)pyridin-3-yl)amino)ethyl)-N,N,4,7-tetramethyl-5-oxo-4,5-dihydroimidazo[1,5-a]quinazoline-3-carboxamide] | < 1000
18 | Cc1cc(C(C)Nc2ccc(Cl)nc2-c2ccc(C#N)cc2F)c2c(c1)c(=O)n(C)c1c(C(=O)N(C)C)ncn21 (centres unmarked) [Compound 125, 9-(1-((6-chloro-2-(4-cyano-2-fluorophenyl)pyridin-3-yl)amino)ethyl)-N,N,4,7-tetramethyl-5-oxo-4,5-dihydroimidazo[1,5-a]quinazoline-3-carboxamide] | < 1000
19 | Cc1cc(C(C)Nc2ccc(Cl)nc2-c2ccc(C#N)cc2)c2c(c1)c(=O)n(C)c1c(C(=O)N(C)C)ncn21 (centres unmarked) [Compound 126, 9-(1-((6-chloro-2-(4-cyanophenyl)pyridin-3-yl)amino)ethyl)-N,N,4,7-tetramethyl-5-oxo-4,5-dihydroimidazo[1,5-a]quinazoline-3-carboxamide] | < 1000
20 | Cc1cc(C(C)Nc2ccc(Cl)nc2N2CCOCC2)c2c(c1)c(=O)n(C)c1c(C(=O)N(C)C)ncn21 (centres unmarked) [Compound 127, 9-(1-((6-chloro-2-morpholinopyridin-3-yl)amino)ethyl)-N,N,4,7-tetramethyl-5-oxo-4,5-dihydroimidazo[1,5-a]quinazoline-3-carboxamide] | < 1000
21 | Cc1cc(C(C)Nc2ccc(F)cc2-c2cnn(C)c2)c2c(c1)c(=O)n(C)c1c(C(=O)N(C)C)ncn21 (centres unmarked) [Compound 128, 9-(1-((4-fluoro-2-(1-methyl-1H-pyrazol-4-yl)phenyl)amino)ethyl)-N,N,4,7-tetramethyl-5-oxo-4,5-dihydroimidazo[1,5-a]quinazoline-3-carboxamide] | < 1000
22 | Cc1cc(C(C)Nc2ccc(Cl)nc2-c2cnn(C)c2C)c2c(c1)c(=O)n(C)c1c(C(=O)N(C)C)ncn21 (centres unmarked) [Compound 129, 9-(1-((6-chloro-2-(1,5-dimethyl-1H-pyrazol-4-yl)pyridin-3-yl)amino)ethyl)-N,N,4,7-tetramethyl-5-oxo-4,5-dihydroimidazo[1,5-a]quinazoline-3-carboxamide] | < 1000
23 | Cc1cc(C(C)Nc2ccc(Cl)nc2-c2cn(C)nc2C)c2c(c1)c(=O)n(C)c1c(C(=O)N(C)C)ncn21 (centres unmarked) [Compound 130, 9-(1-((6-chloro-2-(1,3-dimethyl-1H-pyrazol-4-yl)pyridin-3-yl)amino)ethyl)-N,N,4,7-tetramethyl-5-oxo-4,5-dihydroimidazo[1,5-a]quinazoline-3-carboxamide] | < 1000
24 | Cc1cc(C(C)Nc2ccc(Cl)nc2-c2ncn(C)n2)c2c(c1)c(=O)n(C)c1c(C3CCN(C)CC3)ncn21 (centres unmarked) [Compound 131, 9-(1-((6-Chloro-2-(1-methyl-1H-1,2,4-triazol-3-yl)pyridin-3-yl)amino)ethyl)-4,7-dimethyl-3-(1-methylpiperidin-4-yl) imidazo[1,5-a]quinazolin-5(4H)-one] | < 1000
25 | CC(=O)N1CCC(c2ncn3c4c(C(C)Nc5ccc(Cl)nc5-c5ncn(C)n5)cc(C)cc4c(=O)n(C)c23)CC1 (centres unmarked) [Compound 132, 3-(1-Acetylpiperidin-4-yl)-9-(1-((6-chloro-2-(1-methyl-1H-1,2,4-triazol-3-yl)pyridin-3-yl)amino)ethyl)-4,7-dimethylimidazo[1,5-a]quinazolin-5(4H)-one] | < 1000
26 | CCOC(=O)N1CCC(c2ncn3c4c(C(C)Nc5ccc(Cl)nc5-c5ncn(C)n5)cc(C)cc4c(=O)n(C)c23)CC1 (centres unmarked) [Compound 133, ethyl 4-(9-(1-((6-chloro-2-(1-methyl-1H-1,2,4-triazol-3-yl)pyridin-3-yl)amino)ethyl)-4,7-dimethyl-5-oxo-4,5-dihydroimidazo[1,5-a]quinazolin-3-yl)piperidine-1-carboxylate] | < 1000
